Source: patent US20260055441A1, “A PCR-ELISA ANALOGOUS ANTIBODY-FREE METHOD FOR DETECTING A TARGET NUCLEIC ACID IN A SAMPLE” (UNIVERSITÄT HEIDELBERG, priority 2022, published 2026)
“Also recorded” adds a separate entry of the source. Marks after values point to notes of the source that are not given here. Residues, ends and D or L forms follow the SMILES beside them. *: point of attachment. AMC = Cc1cc(=O)oc2cc(N*)ccc12; Cbz = O=C(OCc1ccccc1)*

Tests used:
[1] = biological target: T1, papain (Carica papaya, UniProt P00784); conditions: literature (Whitesides group; Lukesh et al., 2012); cited from earlier work
T1 sequence (P00784 134-345): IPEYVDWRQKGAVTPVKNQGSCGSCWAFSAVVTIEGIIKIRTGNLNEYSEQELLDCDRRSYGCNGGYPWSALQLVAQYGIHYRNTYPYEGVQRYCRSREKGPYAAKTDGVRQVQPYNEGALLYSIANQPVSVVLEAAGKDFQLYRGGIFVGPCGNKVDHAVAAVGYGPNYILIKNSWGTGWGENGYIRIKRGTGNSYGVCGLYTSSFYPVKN

[2] = biological target: T2, latent papain (Carica papaya, UniProt P00784); experiment: Latent papain reactivation with selenium/thiol activators in presence of TCEP, rates normalized to blank (FIG. 22); format: biochemical; conditions: latent papain 1 nM; for activator efficiency (normalized rate/rate blank), in words: 50 pM-100 nM activator, 1 μM TCEP (FIG. 22)
T2 construct: purchased Sigma Aldrich (Munich, Germany); host or cells: Papaya latex (natural source)
T2 sequence (P00784 134-345): T1 sequence (P00784 134-345)
Experimental: To this end, cysteine ethyl ester, DTT, DTBA (9) and SeDTBA (11) were chosen for a direct comparison. […] The resulting reaction rates were normalized against the background activity and the resulting normalized rates are presented in FIG. 22 for the concentration range of 50 pM-100 nM.
Different assays of reactivating latent papain in solution were conducted in the course of this work. Various buffer compositions, supplements, 96 well plates, substrates, activators, concentrations as well as different latent papain forms were compared. In order to get an overview of all experiments, a standard method is described in the following and variations of this method are subsequently defined. First, the well buffer was prepared (0.1 M phosphate buffer pH 7, 4 mM EDTA, 0.01% Brij35). A 1 mM TCEP solution was prepared with 3 mM NaOH in 0.1 M Tris-HCl buffer pH 8. Papain substrate (Z-Phe-Arg-AMC or Suc-Leu-Leu-Val-Tyr-AMC) was prepared as a 200 μM solution in water and transferred equally to a PCR strip. Three serial dilutions of the activating agent with well buffer were used in the different experiments and the corresponding pipetting schemes are shown in Table 9. Papain was diluted to 0.1 μM with well buffer and transferred equally to a PCR strip. […] After mixing, 30 μL of the prepared activator concentrations (see Table 9) were added and mixed. In the last step, 3.8 μL of the substrate solution was added and mixed, to yield a final well composition of 0.1 M phosphate buffer pH 7, 1 nM papain, 2 μM substrate, activator (see Table 9), 4 mM EDTA, 0.01% Brij35 and 1 μM TCEP. For experiments with only one activator concentration of 10 μM, the transferred well buffer for each well was 368.6 μL, followed by 3.8 μL of papain, substrate and activator (1 mM in well buffer) respectively.

[3] = biological target: T3, latent papain P13 (Carica papaya, UniProt P00784); experiment: Screening of peptide-based papain activators, rates normalized to cysteine ethyl ester (FIG. 19, FIG. 20); format: biochemical
T3 construct: purchased Sigma Aldrich (Munich, Germany); host or cells: Papaya latex (natural source)
T3 sequence (P00784 134-345): T1 sequence (P00784 134-345)
Experimental: L-Cysteine ethyl ester was utilized in identical peptide concentrations as a standard in order to calculate normalized reaction rates for each synthesized peptide.
[…] The assays were conducted in well buffer with 1 nM latent papain P13. In order to give a clear overview, only the normalized rates for activator concentrations of 50 nM are depicted and compared.
Additionally, 1 μM TCEP was added to each well of the cysteine concentration series in order to examine the influence of TCEP on reaction rates of thiols.
Different assays of reactivating latent papain in solution were conducted in the course of this work. Various buffer compositions, supplements, 96 well plates, substrates, activators, concentrations as well as different latent papain forms were compared. In order to get an overview of all experiments, a standard method is described in the following and variations of this method are subsequently defined. First, the well buffer was prepared (0.1 M phosphate buffer pH 7, 4 mM EDTA, 0.01% Brij35). A 1 mM TCEP solution was prepared with 3 mM NaOH in 0.1 M Tris-HCl buffer pH 8. Papain substrate (Z-Phe-Arg-AMC or Suc-Leu-Leu-Val-Tyr-AMC) was prepared as a 200 μM solution in water and transferred equally to a PCR strip. Three serial dilutions of the activating agent with well buffer were used in the different experiments and the corresponding pipetting schemes are shown in Table 9. Papain was diluted to 0.1 μM with well buffer and transferred equally to a PCR strip. […] 342.4 μL of TCEP containing well buffer was transferred to each well, followed by 3.8 μL papain solution. After mixing, 30 μL of the prepared activator concentrations (see Table 9) were added and mixed. In the last step, 3.8 μL of the substrate solution was added and mixed, to yield a final well composition of 0.1 M phosphate buffer pH 7, 1 nM papain, 2 μM substrate, activator (see Table 9), 4 mM EDTA, 0.01% Brij35 and 1 μM TCEP. For experiments with only one activator concentration of 10 μM, the transferred well buffer for each well was 368.6 μL, followed by 3.8 μL of papain, substrate and activator (1 mM in well buffer) respectively.

[4] = Jacob et al., 2003; cited from earlier work
[5] = biological target: T1, papain; conditions: Ménard et al. 1990; cited from earlier work
[6] = biological target: T3, latent papain P13; experiment: Latent papain reactivation assay with thiol activators at 10 μM, rates normalized to 10 μM cysteine (FIG. 18); format: biochemical; conditions: activator 10 μM, latent papain 1 nM, Z-Phe-Arg-AMC 2 μM, well buffer pH 7, no TCEP
Experimental: All following described fluorometric assays (Examples 1-3) are based on the reaction of reversibly inactivated papain (latent papain) with an activator containing either sulfur or selenium (with the exception of TCEP). Different latent papain forms, buffer compositions and activators in various concentrations were compared. Papain was hereby transferred in buffer (standard well buffer consisted of 0.1 M phosphate pH 7, 4 mM EDTA, 0.01% Brij35 and if activators contained diselenides, 1 μM TCEP) mixed with activator and substrate inside 96 well plates (without prior washing of the plates). After reactivation, active papain hydrolyses the substrate Z-Phe-Arg-AMC (2 μM) and the resulting fluorescence was tracked every minute for 2 h. The slopes of the corresponding curves were calculated for the linear portion within the first 30 minutes and the resulting reaction rates were directly compared. Resulting reaction rates directly reflect reactivation efficiencies of each activator under each reaction condition. […] After addition of activator a fraction of latent papain is immediately reactivated in rather non-stoichiometric proportions. Complete reactivation can generally only be achieved with great excess of activator. The partial reactivation with smaller activator amounts appears almost instantaneously because the resulting reaction curve show linear progression from the start except for very low activator concentrations. After reactivation, all different latent papain forms result in the same active enzyme. If different latent papain forms show different reaction rates in identical activation assays, the efficiency of reactivation with the applied activator can be deduced. The same applies for reactivation of one latent papain form with different activators or reaction conditions.
Several thiol compounds and cysteine containing peptide activators (see Example 4.1) were compared for their potential to reactivate latent papain. To this end, the thiol compounds and cysteine containing peptide activators were utilized in reactivation assays (see Example 5, 5.2.2.2, fluorometric method 2) of papain P13 (see Example 1, 1.2) with an activator concentration of 10 μM. For thiols not completely soluble in phosphate buffer pH 7 at high concentrations, the 1 mM stock solution was prepared in DMSO, resulting in 1% DMSO in the reaction mixture. In order to normalize the observed reaction rates between assays, a 10 μM cysteine sample was additionally measured in every assay and reaction rates of the examined thiols were divided through the reaction rates produced by the 10 μM cysteine standard. Additionally, a measurement with 1 mM cysteine was performed in order to achieve maximal papain activation and therefore the maximal reaction rate within the confines of the assay. The resulting normalized rates are compared in FIG. 18.
Different assays of reactivating latent papain in solution were conducted in the course of this work. Various buffer compositions, supplements, 96 well plates, substrates, activators, concentrations as well as different latent papain forms were compared. In order to get an overview of all experiments, a standard method is described in the following and variations of this method are subsequently defined. First, the well buffer was prepared (0.1 M phosphate buffer pH 7, 4 mM EDTA, 0.01% Brij35). A 1 mM TCEP solution was prepared with 3 mM NaOH in 0.1 M Tris-HCl buffer pH 8. Papain substrate (Z-Phe-Arg-AMC or Suc-Leu-Leu-Val-Tyr-AMC) was prepared as a 200 μM solution in water and transferred equally to a PCR strip. Three serial dilutions of the activating agent with well buffer were used in the different experiments and the corresponding pipetting schemes are shown in Table 9. Papain was diluted to 0.1 μM with well buffer and transferred equally to a PCR strip. After preparation of the abovementioned solutions, TCEP (1 mM solution) was added to well buffer to yield a final TCEP concentration of 1.1 μM. […]

[7] = cited from earlier work
[8] = biological target: T4, H2N-CFR-CONH2
T4 chain: CFR

[9] = biological target: T5, H2N-CLR-CONH2
T5 chain: CLR

[10] = biological target: T6, dU-triazole-PEG3-ULR dimer (21) (not fully specified)
T6 chain: ULR

[11] = FIG. 20, concentration series 50 nM-10 μM
[12] = concentration series 50 nM-10 μM, papain P13 1 nM (FIG. 20)

## CN(C(=O)CS)N(C)C(=O)CS [DMH, N,N-dimethyl-N,N′-bis(mercaptoacetyl)hydrazine]
[1]
  papain activation rate compared to DTT: 32 times

## CN(C)C(=O)[C@H](S)CC[C@H](S)C(=O)N(C)C [DTA, meso-2,5-dimercapto-N,N,N,N-tetramethyladipamide]
[1]
  papain activation rate compared to DTT: 4.5 times

## N[C@H](CS)CCS [DTBA (9), dithiobutylamine]
[2]; activator 50 nM, 1 μM TCEP
  rate relative to DTT: 13.6 times
[1]
  papain activation rate compared to DTT: 14 times

## O[C@@H](CS)[C@@H](O)CS [DTT]
[2]
  activator efficiency (normalized rate/rate blank), in words: no substantial rate increase

## CCOC(=O)[C@@H](N)CS.Cl [L-cysteine ethyl ester, L-Cysteine ethyl ester hydrochloride]
[3]; [11]
  potency relative to (L-)cysteine: approximately 2.25 times
[2]
  activator efficiency (normalized rate/rate blank), in words: no substantial rate increase

## N[C@@H](CS)C(=O)O [L-cysteine]
[3]; [12]
  normalized rate compared to cysteine ethyl ester: around 40%
  normalized rate compared to the tripeptide H2N-CLR-CONH2: around 25%
[4]
  redox potential E^0′: −0.233 V

## Cc1cc(=O)oc2cc(NC(=O)[C@H](CCCNC(=N)N)NC(=O)[C@H](Cc3ccccc3)NC(=O)OCc3ccccc3)ccc12 [Z-Phe-Arg-AMC, Z-Phe-Arg 7-amido-4-methylcoumarin] (Cbz-Phe-Arg-{AMC})
[5]
  Km: 420 µM
  kcat: 52 s⁻¹

## SCc1ccccc1 [benzyl mercaptan, Benzylmercaptan]
[6]
  normalized ratio rate/rate 10 μM cysteine of substrate hydrolysis after reactivation of latent papain: 1.69
[7]; published values, source mark b or d legible
  pKa (H2O): 9.4^b

## O=S(=O)(CCS)CCS [bis(2-mercaptoethyl) sulfone]
[6]
  normalized ratio rate/rate 10 μM cysteine of substrate hydrolysis after reactivation of latent papain: 3.17
[7]
  pKa of thiol, as discussed in text: 7.9

## N[C@@H](C[SeH])C(=O)O [selenocysteine]
[3]; [11]
  activator efficiency, in words: more potent activators compared to the tripeptide
[3]; concentration series 50 nM-10 μM (FIG. 20), selenocysteine prepared with TCEP
  rate relative to the tripeptide H2N-CLR-CONH2: 6.5 times
[4]
  redox potential E^0′: −0.488 V
[7]; Huber et al. 1967
  pKa: 5.2

## seleno-dithiobutylamin [SeDTBA (11)]
[2]
  activator efficiency (normalized rate/rate blank), in words: second most efficient activator; also recorded: almost twice as high compared to DTBA (9)

B1: latent papain, reversibly inactivated with S-methyl methanethiosulfonate (-S-S-CH3) (protein)
chain: T1 sequence (P00784 134-345)
[8]
  normalized ratio rate/rate 10 uM cysteine of substrate hydrolysis after reactivation of latent papain (1 nM), activator 10 uM (fold of the rate with L-cysteine): 2
[9]
  normalized ratio rate/rate 10 uM cysteine of substrate hydrolysis after reactivation of latent papain (1 nM), activator 10 uM (fold of the rate with L-cysteine): 2
[10]
  normalized ratio rate/rate blank of substrate hydrolysis after reactivation of latent papain (1 nM) with activator 1-15 nM: The normalized reaction rates for papain P20 now appeared the highest of all papain forms
